Patent publication US4297353A, “Non-irritating injectable dosage forms” (priority 1980, dated 1981)
Read-outs that look alike come from different tables or passages of the source.

Experiments:
[1] = system: muscles of rabbits (sacrospinales group); test: Intramuscular tissue irritation in rabbits, microscopic observations (Example 2)
[2] = system: muscles of rabbits (sacrospinales group); details: rabbit, in vivo

| Compound | evidence of suppuration in the inflammatory zone ([1]; Day 4 post-injection, regardless of concentration) | evidence of connective tissue irritation ([1]; Day 7 and Day 14) | evidence of connective tissue irritation [2] |
| --- | --- | --- | --- |
| CSc1ccc2c(c1)N(CCC1CCCCN1C)c1ccccc1S2 (stereo not drawn) [Mellaril base, thioridazine] | high-frequency evidence of suppuration | became apparent by Day 7 and more frequent and extreme in its occurrence by Day 14 | – |
| CN(C)CCCN1c2ccccc2Sc2ccc(Cl)cc21 [chloropromazine, Chlorpromazine] | – | – | became apparent by Day 7 and more frequent and extreme in its occurrence by Day 14 |
